Reference: patent publication US11041009B2, “Glucose responsive insulin comprising a tri-valent sugar cluster for treatment of diabetes” (Merck Sharp & Dohme Corp., priority 2017, dated 2021)

How the values were obtained:
human IR(B) = biological target: T1, human IR(B) (Homo sapiens, UniProt P06213); test: Insulin Receptor Phosphorylation Assay (MSD pIR assay; Methods A and B); type: cell-based; conditions: Method B: IR phosphorylation assay, 384-well with automated liquid dispense; CHO cells expressing human IR(B); read-out: IR Activation IP†
T1 construct: expressed in transfected cells
T1 sequence (P06213 28-758 limits assumed): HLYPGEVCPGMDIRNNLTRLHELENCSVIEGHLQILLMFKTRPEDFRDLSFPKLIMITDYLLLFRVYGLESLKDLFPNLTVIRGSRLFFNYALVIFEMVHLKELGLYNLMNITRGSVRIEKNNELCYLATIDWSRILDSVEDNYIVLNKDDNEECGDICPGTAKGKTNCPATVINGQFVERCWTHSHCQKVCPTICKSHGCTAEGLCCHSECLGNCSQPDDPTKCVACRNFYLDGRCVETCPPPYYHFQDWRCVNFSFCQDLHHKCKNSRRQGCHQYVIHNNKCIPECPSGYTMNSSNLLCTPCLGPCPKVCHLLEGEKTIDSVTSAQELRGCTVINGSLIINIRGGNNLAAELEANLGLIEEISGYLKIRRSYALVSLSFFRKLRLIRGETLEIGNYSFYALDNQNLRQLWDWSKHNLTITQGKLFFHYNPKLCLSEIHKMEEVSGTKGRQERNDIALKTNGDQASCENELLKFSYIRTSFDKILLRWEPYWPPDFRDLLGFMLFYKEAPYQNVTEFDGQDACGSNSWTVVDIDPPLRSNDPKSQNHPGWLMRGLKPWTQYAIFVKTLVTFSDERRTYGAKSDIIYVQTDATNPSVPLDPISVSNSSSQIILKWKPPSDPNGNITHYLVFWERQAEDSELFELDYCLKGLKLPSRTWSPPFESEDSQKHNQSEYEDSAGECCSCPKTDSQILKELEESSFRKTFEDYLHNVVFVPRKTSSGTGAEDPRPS
T1 sequence (P06213 763-1382 partner limits assumed): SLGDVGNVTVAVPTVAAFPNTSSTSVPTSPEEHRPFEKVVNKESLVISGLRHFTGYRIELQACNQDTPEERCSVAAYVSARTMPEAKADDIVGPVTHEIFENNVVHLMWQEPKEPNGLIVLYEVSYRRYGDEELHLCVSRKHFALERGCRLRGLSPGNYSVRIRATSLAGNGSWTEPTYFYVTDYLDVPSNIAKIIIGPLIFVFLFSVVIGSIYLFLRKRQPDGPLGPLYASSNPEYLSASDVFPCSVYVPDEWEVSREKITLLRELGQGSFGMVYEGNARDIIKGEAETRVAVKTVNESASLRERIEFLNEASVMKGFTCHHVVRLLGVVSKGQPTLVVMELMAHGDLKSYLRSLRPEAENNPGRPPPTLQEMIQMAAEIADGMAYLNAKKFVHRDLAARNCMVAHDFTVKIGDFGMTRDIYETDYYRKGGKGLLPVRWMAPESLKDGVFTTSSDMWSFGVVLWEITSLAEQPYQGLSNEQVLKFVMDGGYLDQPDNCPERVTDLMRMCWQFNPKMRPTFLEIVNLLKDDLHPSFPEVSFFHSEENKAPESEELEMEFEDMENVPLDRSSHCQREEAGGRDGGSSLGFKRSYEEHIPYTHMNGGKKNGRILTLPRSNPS
Method: Insulin Receptor Phosphorylation Assays were performed as follows.
Cells were harvested and frozen in aliquots for use in the MSD pIR assay. Briefly, the frozen cells were plated in either 96-well (40,000 cells/well, Method A) or 384-well (10,000 cells/well, Method B) clear tissue culture plates and allowed to recover. IOC molecules at the appropriate concentrations were added and the cells incubated for 8 min at 37° C. The media was aspirated and chilled MSD cell lysis buffer was added as per MSD kit instructions. The cells were lysed on ice for 40 min and the lysate then mixed for 10 minutes at room temperature. The lysate was transferred to the MSD kit pIR detection plates. The remainder of the assay was carried out following the MSD kit recommended protocol.

[1] = biological target: T2, Human macrophage mannose receptor 1 (MRC1) (Homo sapiens, UniProt P22897); test: MRC1 competition binding assay with Eu-labeled mannosylated-BSA (Methods E and F); conditions: Method F: MRC1 assay in a 384-well plate; read-out: MRC1 Binding IP‡
T2 sequence (P22897 19-1456): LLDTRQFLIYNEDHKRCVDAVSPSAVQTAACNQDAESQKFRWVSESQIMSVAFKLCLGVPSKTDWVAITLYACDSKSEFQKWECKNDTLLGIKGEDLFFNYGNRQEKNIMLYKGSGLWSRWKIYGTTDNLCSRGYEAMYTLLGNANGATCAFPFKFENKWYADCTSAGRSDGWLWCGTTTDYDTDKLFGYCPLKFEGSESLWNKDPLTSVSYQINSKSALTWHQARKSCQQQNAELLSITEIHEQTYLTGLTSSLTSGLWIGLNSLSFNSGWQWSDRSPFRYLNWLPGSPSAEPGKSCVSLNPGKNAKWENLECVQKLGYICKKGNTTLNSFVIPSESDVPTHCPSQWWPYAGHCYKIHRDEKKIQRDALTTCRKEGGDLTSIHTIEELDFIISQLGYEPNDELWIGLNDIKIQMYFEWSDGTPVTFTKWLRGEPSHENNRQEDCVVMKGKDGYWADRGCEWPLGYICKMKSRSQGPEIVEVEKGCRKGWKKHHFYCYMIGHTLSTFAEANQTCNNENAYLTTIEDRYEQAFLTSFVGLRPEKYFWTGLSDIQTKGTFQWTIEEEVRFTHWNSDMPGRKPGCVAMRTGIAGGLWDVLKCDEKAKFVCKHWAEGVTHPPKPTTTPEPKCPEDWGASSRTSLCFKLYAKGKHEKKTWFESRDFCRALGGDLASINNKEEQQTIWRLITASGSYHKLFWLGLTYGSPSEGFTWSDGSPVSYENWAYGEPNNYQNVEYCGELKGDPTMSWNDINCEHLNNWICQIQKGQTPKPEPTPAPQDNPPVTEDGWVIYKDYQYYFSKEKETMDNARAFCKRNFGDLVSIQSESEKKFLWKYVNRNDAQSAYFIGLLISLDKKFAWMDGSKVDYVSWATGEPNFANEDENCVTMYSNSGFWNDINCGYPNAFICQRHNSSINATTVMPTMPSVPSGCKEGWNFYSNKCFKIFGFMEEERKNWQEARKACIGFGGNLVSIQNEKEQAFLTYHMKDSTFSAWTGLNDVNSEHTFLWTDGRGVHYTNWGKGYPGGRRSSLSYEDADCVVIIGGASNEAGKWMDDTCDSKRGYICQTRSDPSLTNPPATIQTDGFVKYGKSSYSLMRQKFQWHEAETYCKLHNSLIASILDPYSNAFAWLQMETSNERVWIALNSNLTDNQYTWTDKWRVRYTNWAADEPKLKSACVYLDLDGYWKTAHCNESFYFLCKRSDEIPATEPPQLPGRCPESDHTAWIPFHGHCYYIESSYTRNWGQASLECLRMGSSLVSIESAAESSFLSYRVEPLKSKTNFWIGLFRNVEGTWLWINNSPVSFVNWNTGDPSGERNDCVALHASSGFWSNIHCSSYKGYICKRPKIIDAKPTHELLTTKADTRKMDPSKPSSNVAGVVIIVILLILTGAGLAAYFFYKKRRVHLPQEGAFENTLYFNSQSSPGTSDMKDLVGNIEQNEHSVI
Method: Human macrophage mannose receptor 1 (MRC1) Binding Assays were performed as follows.
The competition binding assay for MRC1 utilized a ligand, mannosylated-BSA labeled with the DELFIA Eu-N1-ITC reagent, as reported in the literature. Assay was performed either in a 96-well plate with 100 μL well volume (Method E) or in a 384-well plate with 25 μL well volume (Method F). […] The antibody was incubated in the plate for 1 hr at room temperature with shaking. The plate was washed with wash buffer 3-5 times followed by addition of MRC1 (2 ng/μl final concentration) in PBS containing 1% stabilizer BSA. The plate was incubated at room temperature with gentle shaking for 1 hr. The plate was washed three times with wash buffer. The IOC molecules in 12.5 μL (or 50 μL depending on plate format) buffer at appropriate concentrations were added followed by 12.5 μL (or 50 μL) Eu-mannosylated-BSA (0.1 nM final concentration) in 50 mM Tris, pH 7.5 containing 100 mM NaCl, 5 mM CaCl2, 1 mM MgCl2 and 0.2% stabilizer BSA. The plate was incubated for 2 hrs at room temperature with shaking followed by washing three times with wash buffer. Perkin Elmer Eu-inducer reagent was added and incubated for 30 min at room temperature prior to detection of the Eu signal (Excitation=340 nm: Emission=615 nm).

[2] = biological target: human insulin receptor type B (IR(B)) (Homo sapiens, UniProt P06213); test: Insulin Receptor Binding Assay, scintillation proximity assay with cell membranes (Method D)
human insulin receptor type B (IR(B)), sequence (P06213 28-758 limits assumed): as the sequence (P06213 28-758 limits assumed) above
human insulin receptor type B (IR(B)), sequence (P06213 763-1382 partner limits assumed): as the sequence (P06213 763-1382 partner limits assumed) above

CC[C@H](C)[C@H](NC(=O)CN)C(=O)N[C@H](C(=O)N[C@@H](CCC(=O)O)C(=O)N[C@@H](CCC(N)=O)C(=O)N[C@H]1CSSC[C@@H]2NC(=O)[C@H]([C@@H](C)CC)NC(=O)[C@H](CO)NC(=O)[C@H]([C@@H](C)O)NC(=O)[C@H](CSSC[C@H](NC(=O)[C@H](CC(C)C)NC(=O)[C@H](Cc3c[nH]cn3)NC(=O)[C@H](CCC(N)=O)NC(=O)[C@H](CC(N)=O)NC(=O)[C@@H](NC(=O)[C@H](Cc3ccccc3)NC(=O)CCCCC(=O)N(CC(=O)NCCO[C@@H]3O[C@H](CO)[C@@H](O)[C@H](O)[C@H]3O)CC(=O)N(CCO[C@H]3O[C@H](CO)[C@@H](O)[C@H](O)[C@@H]3O)CCO[C@H]3O[C@H](CO)[C@@H](O)[C@H](O)[C@@H]3O)C(C)C)C(=O)NCC(=O)N[C@@H](CO)C(=O)N[C@@H](Cc3c[nH]cn3)C(=O)N[C@@H](CC(C)C)C(=O)N[C@@H](C(C)C)C(=O)N[C@@H](CCC(=O)O)C(=O)N[C@@H](C)C(=O)N[C@@H](CC(C)C)C(=O)N[C@@H](Cc3ccc(O)cc3)C(=O)N[C@@H](CC(C)C)C(=O)N[C@@H](C(C)C)C(=O)N[C@H](C(=O)NCC(=O)N[C@@H](CCC(=O)O)C(=O)N[C@@H](CCCNC(=N)N)C(=O)NCC(=O)N[C@@H](Cc3ccccc3)C(=O)N[C@@H](Cc3ccccc3)C(=O)N[C@@H](Cc3ccc(O)cc3)C(=O)N[C@H](C(=O)N3CCC[C@H]3C(=O)N[C@@H](CCCCNC(=O)CCCCC(=O)N(CC(=O)NCCO[C@@H]3O[C@H](CO)[C@@H](O)[C@H](O)[C@H]3O)CC(=O)N(CCO[C@H]3O[C@H](CO)[C@@H](O)[C@H](O)[C@@H]3O)CCO[C@H]3O[C@H](CO)[C@@H](O)[C@H](O)[C@@H]3O)C(=O)N[C@H](C(=O)O)[C@@H](C)O)[C@@H](C)O)CSSC[C@@H](C(=O)N[C@@H](CC(N)=O)C(=O)O)NC(=O)[C@H](Cc3ccc(O)cc3)NC(=O)[C@H](CC(N)=O)NC(=O)[C@H](CCC(=O)O)NC(=O)[C@H](CC(C)C)NC(=O)[C@H](CCC(N)=O)NC(=O)[C@H](Cc3ccc(O)cc3)NC(=O)[C@H](CC(C)C)NC(=O)[C@H](CO)NC2=O)NC1=O)C(C)C [IOC-63]
EC50 (human IR(B)): 0.63 nM
IC50 [1]: 70.2 nM
IC50 [2]: 1.65 nM
